Series [1] can be described thus: Half life in mouse at 5.5 mg/kg, ip by HPLC/MS/MS analysis. As to conditions: in vivo. Type of series: ADME, organism-based.
The nature of series [2]: Effect on cleaved PARP level in human NCI-H510 cells assessed as relative expression at 10 nM measured after 10 days by Western blot analysis (reference value: 0.02). Type of series: functional, NCI-H510A. As to conditions: time 10 day. (In general: A western blot detects proteins with antibodies after separation by electrophoresis.)
The target in series [3] is Amine oxidase [flavin-containing] B (Homo sapiens, UniProt P27338). In words: Inhibition of MAO-B (unknown origin).
Series [4] is described as follows: Effect on cleaved PARP level in human NCI-H146 cells assessed as fold change at 10 nM measured after 14 days by Western blot analysis (reference value: 1.00). Type of series: functional. As to conditions: time 14 day.
The nature of series [5]: Effect on cleaved PARP level in human NCI-H510 cells assessed as fold change at 100 nM measured after 7 days by Western blot analysis (reference value: 1.00). Type of series: functional, NCI-H510A. Conditions: time 7 day.
Series [6] can be described thus: Effect on cleaved PARP level in human NCI-H524 cells assessed as relative expression at 1000 nM measured after 7 days by Western blot analysis (reference value: 0.63). Type of series: functional. As to conditions: time 7 day.
Series [7] is described as follows: Effect on cleaved PARP level in human NCI-H1694 cells assessed as relative expression at 100 nM measured after 10 days by Western blot analysis (reference value: 0.31). Type of series: functional. Conditions: time 10 day.
Series [8] is described as follows: Effect on cleaved PARP level in human NCI-H524 cells assessed as fold change at 10 nM measured after 14 days by Western blot analysis (reference value: 1.00). Type of series: functional. Conditions: time 14 day.
Series [9] in a line: Effect on cleaved PARP level in human NCI-H524 cells assessed as relative expression at 10 nM measured after 14 days by Western blot analysis (reference value: […]). Type of series: functional. Conditions: time 14 day.
Series [10] is described as follows: Effect on cleaved PARP level in human NCI-H510 cells assessed as relative expression at 1000 nM measured after 10 days by Western blot analysis (reference value: 0.02). Type of series: functional, NCI-H510A. Conditions: time 10 day.
The nature of series [11]: Effect on cleaved PARP level in human NCI-H146 cells assessed as relative expression at 100 nM measured after 14 days by Western blot analysis (reference value: 2.42). Type of series: functional. As to conditions: time 14 day.
Series [12] can be described thus: Effect on cleaved PARP level in human NCI-H69 cells assessed as fold change at 10 nM measured after 7 days by Western blot analysis (reference value: 1.00). Type of series: functional. As to conditions: time 7 day.
Series [13] can be described thus: Effect on cleaved PARP level in human NCI-H1417 cells assessed as fold change at 1000 nM measured after 14 days by Western blot analysis (reference value: 1.00). Conditions: time 14 day. Type of series: functional.
Series [14] is described as follows: Effect on cleaved PARP level in human NCI-H2171 cells assessed as relative expression at 10 nM measured after 7 days by Western blot analysis (reference value: 0.02). Type of series: functional. As to conditions: time 7 day.
Series [15] is described as follows: Effect on cleaved PARP level in human NCI-H510 cells assessed as fold change at 10 nM measured after 10 days by Western blot analysis (reference value: 1.00). Conditions: time 10 day. Type of series: functional, NCI-H510A.
Series [16] can be described thus: Effect on cleaved PARP level in human NCI-H510 cells assessed as fold change at 100 nM measured after 14 days by Western blot analysis (reference value: 1.00). Conditions: time 14 day. Type of series: functional, NCI-H510A.
A short description of series [17]: Effect on cleaved PARP level in human NCI-H889 cells assessed as relative expression at 1000 nM measured after 14 days by Western blot analysis (reference value: 0.94). Type of series: functional. Conditions: time 14 day.
Series [18] in a line: Toxicity in dog assessed as suppression of platelet in bone marrow measured for 28 days. Type of series: cell-based, Canis lupus familiaris. Conditions: 672 h, time 28 day.
Series [19] is described as follows: Effect on cleaved PARP level in human NCI-H524 cells assessed as fold change at 1000 nM measured after 7 days by Western blot analysis (reference value: 1.00). Type of series: functional. Conditions: time 7 day.
The nature of series [20]: Effect on cleaved PARP level in human COLO-668 cells assessed as fold change at 10 nM measured after 10 days by Western blot analysis (reference value: 1.00). Type of series: functional. Conditions: time 10 day.
Series [21] in a line: Effect on cleaved PARP level in human NCI-H889 cells assessed as relative expression at 10 nM measured after 7 days by Western blot analysis (reference value: 0.34). Type of series: functional. As to conditions: time 7 day.
Series [22] has as its system NCI-H526. As to the kind of experiment: Effect on NCAM gene expression in human NCI-H526 cells at 1 uM measured after 4 days by qRT-PCR analysis. Conditions: time 4.0 day. Type of series: functional, cell-based. Background: Quantitative PCR measures a nucleic acid by following its amplification.
A short description of series [23]: Effect on cleaved PARP level in human NCI-H146 cells assessed as fold change at 10 nM measured after 7 days by Western blot analysis (reference value: 1.00). Type of series: functional. Conditions: time 7 day.
A further series deals with SHP77. In words: Antitumor activity against human SHP77 cells xenografted in nude mouse assessed as tumor growth inhibition at […] mg/kg, po administered daily measured twice weekly relative to control. Type of series: functional. Conditions: read-out: TGI. In general terms: A xenograft is tissue or cells of one species grown in another, often human tumour cells in immunodeficient mice.

Series [24] in a line: Effect on cleaved PARP level in human NCI-H146 cells assessed as relative expression at 1000 nM measured after 14 days by Western blot analysis (reference value: 2.42). Type of series: functional. As to conditions: time 14 day.
Series [25] in a line: Effect on cleaved PARP level in human NCI-H889 cells assessed as fold change at 100 nM measured after 10 days by Western blot analysis (reference value: 1.00). Type of series: functional. As to conditions: time 10 day.
Series [26] concerns NCI-H526. As to the kind of experiment: In vivo inhibition of LSD1 in human NCI-H526 cells xenografted in nude mouse assessed as change in ODZ2 gene expression administrated daily for 5 days by qRT-PCR analysis. As to conditions: dose 0.02-135 mg/kg, time 5.0 day. Type of series: functional, organism-based.
Series [27] can be described thus: Effect on cleaved PARP level in human NCI-H69 cells assessed as fold change at 100 nM measured after 10 days by Western blot analysis (reference value: 1.00). Type of series: functional. As to conditions: time 10 day.
A short description of series [28]: Effect on cleaved PARP level in human NCI-H524 cells assessed as fold change at 100 nM measured after 14 days by Western blot analysis (reference value: 1.00). Conditions: time 14 day. Type of series: functional.
Series [29] in a line: Effect on cleaved PARP level in human NCI-H1694 cells assessed as fold change at 100 nM measured after 10 days by Western blot analysis (reference value: 1.00). Type of series: functional. As to conditions: time 10 day.
Series [30] relates to NCI-H526. In words: Effect on global H3K4me2 level in human NCI-H526 cells at 10 to 1000 nM measured after 24 hrs by Western blot analysis. Type of series: functional, cell-based. Conditions: dose 10-1000 nM.
For series [31], the system named is NCI-H526. As to the kind of experiment: In vivo inhibition of LSD1 in human NCI-H526 cells xenografted in nude mouse assessed as change in LIX1L gene expression administrated daily for 5 days by qRT-PCR analysis. Type of series: functional, organism-based. Conditions: dose 0.02-135 mg/kg, time 5.0 day.
Series [32] in a line: Effect on cleaved PARP level in human COLO-668 cells assessed as relative expression at 10 nM measured after 7 days by Western blot analysis (reference value: […]). Conditions: time 7 day. Type of series: functional.
Series [33] is described as follows: Effect on cleaved PARP level in human NCI-H524 cells assessed as relative expression at 100 nM measured after 7 days by Western blot analysis (reference value: 0.63). Type of series: functional. As to conditions: time 7 day.
For series [34], the system named is NCI-H526. In words: In vivo inhibition of LSD1 in human NCI-H526 cells xenografted in nude mouse assessed as change in ANXA6 gene expression measured after 24 hrs post single administration by qRT-PCR analysis. Conditions: dose 0.06-135 mg/kg. Type of series: functional, organism-based.
Series [35] in a line: Toxicity in rat assessed as effect on ECG measured for 28 days. Conditions: in vivo, 672 h, time 28 day.

From ChEMBL document CHEMBL5705903, “A DNA Hypomethylation Signature Predicts Antitumor Activity of LSD1 Inhibitors in SCLC” (Cancer Cell, 2015) come the findings set out here.

Active and inactive are the calls of the source. The calls are words filed in the database; no cut-off is given here.

Chain of Amine oxidase [flavin-containing] B (P27338 whole entry): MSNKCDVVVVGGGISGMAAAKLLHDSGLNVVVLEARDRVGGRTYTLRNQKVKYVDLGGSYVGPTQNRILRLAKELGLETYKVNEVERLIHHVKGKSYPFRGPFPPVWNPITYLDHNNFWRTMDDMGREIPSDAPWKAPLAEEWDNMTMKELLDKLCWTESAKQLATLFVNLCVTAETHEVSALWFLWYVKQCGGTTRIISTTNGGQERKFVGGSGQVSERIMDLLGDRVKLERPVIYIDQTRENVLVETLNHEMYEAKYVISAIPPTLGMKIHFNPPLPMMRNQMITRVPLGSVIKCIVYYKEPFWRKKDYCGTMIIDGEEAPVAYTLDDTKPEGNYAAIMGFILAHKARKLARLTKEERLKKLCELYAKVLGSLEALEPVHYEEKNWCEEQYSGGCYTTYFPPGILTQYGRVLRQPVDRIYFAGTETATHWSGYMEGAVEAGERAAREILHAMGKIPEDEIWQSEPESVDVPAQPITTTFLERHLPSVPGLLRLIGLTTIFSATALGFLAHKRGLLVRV

In general, half-life refers to how long it takes for the measured level to halve. High values mean slow decline, low ones rapid decline. As for `c1ccc([C@@H]2C[C@H]2NC2CCNCC2)cc1`, the half-life in [1] was 216 min.

In general, IC50 refers to the concentration needed to halve the response being measured. Read a low IC50 as inhibition by little substance. In the case of `O=C(O)c1ccc(CN2CCC(CN[C@@H]3C[C@H]3c3ccccc3)CC2)cc1` [GSK2879552], the Activity in series [2] worked out at 0.08; in series [6], 1.12; in [7] it was 0.23; in [9], 1.2; in series [10], 0.23; in [11], 1.09. The Activity in series [14] is 0.03; in series [17], 2.65; in series [18], “Toxic”; in series [21] it was 0.03; in [24] it was 1.45; in series [32], 1.07. Further, the Activity in series [33] is 0.6; in [35], “Toxic”. In series [3], this compound gave an IC50 of 20 µM. Besides, the “fold change (FC)” value in series [4] came out at 0.64; in series [5] it was 1.84; in series [8], 0.79; in series [12] it was 1.26; in [13], 1.1; in series [15] it was 4.22. Also, the “fold change (FC)” value in [16] turned out to be 2.92; in [19] it was 1.77; in [20], 0.75; in series [23] it was 1.09; in [25] it was 2.25; in [27], 1.62. The “fold change (FC)” value in series [28] turned out to be 0.74; in series [29], 0.75. The outcome with NCI-H526 [22] and in the series on NCI-H526 [30] was inactive. The inhibition in vivo at 1.25 mg/kg in the series with SHP77 amounted to 17%. Besides, the inhibition entry with NCI-H526 [26], with NCI-H526 [31] and in the series on NCI-H526 [34] was “Dose-Dependent Effect” throughout.
